Earlier results on 1 molecule are cited in paper PMC12736120, “First-in-Human Phase I Clinical Trial of SLC-391, a Novel and Selective AXL Inhibitor, in Patients with Advanced Solid Tumours” (Pharmaceuticals, 2025).

Structures are written as SMILES.

The subject of this data set is MER. Conditions: stated in the Introduction, no reference given; read-out: IC50 against MER; cited from earlier work.

Broadly, the IC50 is the concentration that inhibits the measured activity by half. On to `Nc1ncc(-c2cnn(C3CCNCC3)c2)cc1-c1nnc(CC2CC2)o1` [SLC-391, 3-(5-[cyclopropylmethyl]-1,3,4-oxadiazol-2-yl)-5-(1-[piperidin-4-yl]-1H-pyrazol-4-yl)-pyridin-2-amine], for which the IC50 was 44 nM.
